Measured values taken from patent US20110039825A1, “LIGANDS OF ALPHA-ADRENOCEPTORS, DOPAMINE, HISTAMINE, IMIDAZOLINE AND SEROTONIN RECEPTORS AND THEIR USE” (Alla Chem, LLC, priority 2007, published 2011).

Experiments:
[1] = biological target: T1, human D4.2 receptor (Homo sapiens, UniProt P21917, DEL265-296); test: radioligand binding to dopamine receptor D4.2 ([3H] Spiperone); details: 10 μM ligand
T1 sequence (P21917 with tags, fused parts or gaps DEL265-296): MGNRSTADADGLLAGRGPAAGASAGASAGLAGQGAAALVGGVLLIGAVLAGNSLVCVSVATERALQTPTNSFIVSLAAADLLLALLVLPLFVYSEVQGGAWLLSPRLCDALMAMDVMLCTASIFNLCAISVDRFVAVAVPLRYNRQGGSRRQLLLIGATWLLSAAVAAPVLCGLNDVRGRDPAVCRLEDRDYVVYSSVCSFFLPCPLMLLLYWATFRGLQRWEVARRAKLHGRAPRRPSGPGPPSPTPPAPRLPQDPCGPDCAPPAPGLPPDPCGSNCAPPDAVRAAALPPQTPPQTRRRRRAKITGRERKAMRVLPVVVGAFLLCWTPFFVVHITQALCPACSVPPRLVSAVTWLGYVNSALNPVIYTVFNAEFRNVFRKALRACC
Description: Screening of the disclosed compounds for potential ability to interact with dopamine receptor D4.2 is carried out by method of radioligand binding. […] From the cells transfected in this way membrane species are prepared by homogenization of these cells in glass homogenizer with the subsequent separation of plasmatic membranes from cell nuclei, mitochondrias and cell wreckages by differential centrifugation. […] After incubation samples are filtered in vacuo on glass-microfiber filters G/F (Millipor, USA), filters are washed three times with cold solution of medium and radioactivity is measured by scintillation counter MicroBeta 340 (Perkin Elmer, USA). Nonspecific binding which makes up 10% of the overall binding is determined by incubation of membrane species with radioligand in the presence of 10 μM of Haloperidol.
Spiperone is used as positive control. Tested compounds' binding to the receptor is determined by their ability to displace radioligand and expressed in percent of displacement (% I). Values of % I are calculated according to the following equation:
wherein: TA—is overall radioactivity in the presence of radioligand only, CA—is radioactivity in the presence of radioligand and tested compound and NA—is radioactivity in the presence of radioligand and Haloperidol (10 μM).

[2] = biological target: T2, human H2 receptor (Homo sapiens, UniProt P25021); test: radioligand binding to histamine receptor H2 ([125I] Aminopotentidine); details: 10 μM ligand
T2 construct: expressed in transfected cells; host or cells: CHO-K1
Description: Proc Natl Acad Sci USA. 87(5): 1658-1662, 1990]. […] Proc Natl Acad Sci USA. 87(5): 1658-1662, 1990]. […] Tiotidine is used as positive control.

[3] = biological target: T3, human α1D receptor (Homo sapiens, UniProt P25100); test: radioligand binding to adrenergic receptor α1D ([3H] Prazosin)
T3 construct: expressed in transfected cells; host or cells: HEK-293
T3 sequence (P25100 1-572): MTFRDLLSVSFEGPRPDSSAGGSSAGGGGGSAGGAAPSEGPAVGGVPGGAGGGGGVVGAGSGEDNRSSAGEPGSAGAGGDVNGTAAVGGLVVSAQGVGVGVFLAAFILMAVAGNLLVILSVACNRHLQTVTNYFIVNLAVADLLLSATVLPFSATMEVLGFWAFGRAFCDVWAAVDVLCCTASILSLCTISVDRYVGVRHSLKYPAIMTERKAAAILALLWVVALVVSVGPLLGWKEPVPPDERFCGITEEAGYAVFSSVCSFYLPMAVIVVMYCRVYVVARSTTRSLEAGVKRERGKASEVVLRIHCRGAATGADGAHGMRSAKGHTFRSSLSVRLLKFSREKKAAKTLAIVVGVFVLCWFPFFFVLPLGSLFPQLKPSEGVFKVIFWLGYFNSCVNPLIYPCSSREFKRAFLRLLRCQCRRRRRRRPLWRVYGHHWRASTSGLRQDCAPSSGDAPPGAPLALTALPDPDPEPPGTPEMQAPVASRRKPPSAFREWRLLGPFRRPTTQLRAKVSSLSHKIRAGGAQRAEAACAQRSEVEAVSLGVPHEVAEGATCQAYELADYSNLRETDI
Description: 6-C. […] For this purpose sDNA of human α1D receptor is expressed in HEK-293 cells, as it was described in [T L Theroux, T A Esbenshade, R D Peavy and K P Minneman. Coupling efficiencies of human alpha 1-adrenergic receptor subtypes: titration of receptor density and responsiveness with inducible and repressible expression vectors. Mol. Pharmacol.; 50: 1376-1387, 1996]. […] Prazosin is used as positive control.

[4] = biological target: T4, human D1 receptor (Homo sapiens, UniProt P21728); test: radioligand binding to dopamine receptor D1 ([3H] SCH-23390); details: for Dopamine receptor D1, % inhibition: 10 μM ligand
T4 construct: expressed in transfected cells; host or cells: CHO
Description: For this purpose sDNA of human D1 receptor is expressed in CHO cells, as it was described in [Dearry A, Gingrich J A, Falardeau P, Fremeau R T Jr, Bates M D and Caron M G. Molecular cloning and expression of the gene for a human D1 dopamine receptor. Nature. […] Nature.

[5] = biological target: T5, human 5-HT7 receptor (Homo sapiens, UniProt P34969); test: radioligand binding to serotonin receptor 5-HT7 ([3H] Lysergic acid diethylamide)
T5 construct: expressed in transfected cells; host or cells: CHO
Description: For this purpose sDNA of human 5-HT7 receptor is expressed in CHO cells as it was described in [Shen Y, Monsma F J Jr, Metcalf M A, Jose P A, Hamblin M W, and Sibley DR. […] J. Biol. Chem. 1993, 268, 18200-18204]. […] J. Pharmacol. Exp. Ther. 1994, 268:1403-1410]. […] Methiothepin is used as positive control.

[6] = biological target: T6, recombinant human 5-HT2B receptor (Homo sapiens, UniProt P41595); test: radioligand binding to serotonin receptor 5-HT2B ([3H] Lysergic acid diethylamide)
T6 construct: expressed in transfected cells; host or cells: CHO-K1

[7] = biological target: T7, recombinant human 5-HT2C receptor (Homo sapiens, UniProt P28335); test: radioligand binding to serotonin receptor 5-HT2C ([3H] Mesulergine)
T7 construct: expressed in transfected cells; host or cells: CHO-K1
T7 sequence (P28335 33-458): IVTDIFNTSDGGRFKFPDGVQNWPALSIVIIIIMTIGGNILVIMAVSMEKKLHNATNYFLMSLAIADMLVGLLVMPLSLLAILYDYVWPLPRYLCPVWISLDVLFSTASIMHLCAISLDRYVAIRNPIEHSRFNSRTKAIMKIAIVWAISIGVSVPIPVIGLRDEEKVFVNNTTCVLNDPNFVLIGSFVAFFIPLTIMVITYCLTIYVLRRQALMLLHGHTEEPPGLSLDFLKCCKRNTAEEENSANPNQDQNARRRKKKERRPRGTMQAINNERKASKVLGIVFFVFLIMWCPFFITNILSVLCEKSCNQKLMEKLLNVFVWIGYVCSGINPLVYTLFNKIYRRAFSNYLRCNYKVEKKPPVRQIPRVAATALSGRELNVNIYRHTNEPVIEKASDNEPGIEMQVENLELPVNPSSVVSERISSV
Description: J. Neurochem. 69: 1449-1458, 1997]. […] SB242084 is used as positive control.

T6 sequence (P41595 whole entry): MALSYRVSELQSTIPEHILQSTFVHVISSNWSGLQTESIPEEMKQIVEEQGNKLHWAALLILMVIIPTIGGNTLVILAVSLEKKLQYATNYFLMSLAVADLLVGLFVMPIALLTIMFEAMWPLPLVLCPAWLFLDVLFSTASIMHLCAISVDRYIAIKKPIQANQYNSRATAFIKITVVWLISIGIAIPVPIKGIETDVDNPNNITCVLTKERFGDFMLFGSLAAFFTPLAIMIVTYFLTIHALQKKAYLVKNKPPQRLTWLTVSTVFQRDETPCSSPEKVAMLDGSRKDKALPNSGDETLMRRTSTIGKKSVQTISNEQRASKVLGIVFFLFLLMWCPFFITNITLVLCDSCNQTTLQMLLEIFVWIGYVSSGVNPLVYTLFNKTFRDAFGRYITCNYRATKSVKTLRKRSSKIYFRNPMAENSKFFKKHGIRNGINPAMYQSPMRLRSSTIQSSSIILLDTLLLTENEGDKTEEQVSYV
T4 sequence (P21728 whole entry): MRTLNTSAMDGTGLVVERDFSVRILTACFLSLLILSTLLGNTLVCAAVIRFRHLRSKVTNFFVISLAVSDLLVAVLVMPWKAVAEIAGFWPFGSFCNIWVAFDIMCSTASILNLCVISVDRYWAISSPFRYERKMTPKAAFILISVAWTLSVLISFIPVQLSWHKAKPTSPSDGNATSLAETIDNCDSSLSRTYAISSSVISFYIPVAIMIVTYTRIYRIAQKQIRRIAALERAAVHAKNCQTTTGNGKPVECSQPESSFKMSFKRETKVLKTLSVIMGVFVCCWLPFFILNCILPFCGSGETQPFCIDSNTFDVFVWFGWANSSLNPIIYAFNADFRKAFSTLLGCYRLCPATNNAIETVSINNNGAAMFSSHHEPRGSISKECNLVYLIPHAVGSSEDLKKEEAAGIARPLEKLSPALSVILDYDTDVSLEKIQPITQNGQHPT
T5 sequence (P34969 whole entry): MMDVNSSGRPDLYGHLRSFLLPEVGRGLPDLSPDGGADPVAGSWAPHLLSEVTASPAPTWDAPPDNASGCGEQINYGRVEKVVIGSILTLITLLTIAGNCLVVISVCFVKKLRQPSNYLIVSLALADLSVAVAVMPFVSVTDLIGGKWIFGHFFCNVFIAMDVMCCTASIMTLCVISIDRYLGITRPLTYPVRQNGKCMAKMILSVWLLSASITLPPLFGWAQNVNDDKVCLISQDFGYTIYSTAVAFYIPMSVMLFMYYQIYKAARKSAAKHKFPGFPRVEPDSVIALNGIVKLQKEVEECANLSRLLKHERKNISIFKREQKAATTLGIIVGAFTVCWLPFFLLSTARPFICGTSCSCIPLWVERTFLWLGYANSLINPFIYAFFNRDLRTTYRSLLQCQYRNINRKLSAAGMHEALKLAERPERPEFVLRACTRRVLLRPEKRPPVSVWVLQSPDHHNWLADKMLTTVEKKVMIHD
T2 sequence (P25021 whole entry): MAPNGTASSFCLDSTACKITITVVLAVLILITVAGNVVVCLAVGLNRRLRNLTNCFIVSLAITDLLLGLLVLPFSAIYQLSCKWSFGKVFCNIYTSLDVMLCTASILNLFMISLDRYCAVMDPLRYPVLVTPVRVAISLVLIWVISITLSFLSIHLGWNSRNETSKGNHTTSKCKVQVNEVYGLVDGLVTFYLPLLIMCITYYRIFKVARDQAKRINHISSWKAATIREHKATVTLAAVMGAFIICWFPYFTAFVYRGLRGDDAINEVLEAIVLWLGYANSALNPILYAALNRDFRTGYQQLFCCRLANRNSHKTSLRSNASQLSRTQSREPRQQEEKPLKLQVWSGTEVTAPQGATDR

SMILES	Dopamine receptor D4.2, % inhibition [1] [%]	Histamine receptor H2, % inhibition [2] [%]	α-Adrenoceptor α1D, % inhibition ([3]; 10 μM ligand) [%]	Dopamine receptor D1, % inhibition [4] [%]	5-HT7 % inhibition ([5]; 10 μM ligand) [%]	IC50 [3] [nM]	Ki [3] [nM]	nH 5-HT2B [6]	IC50 ([6]; read-out: IC50 5-HT2B) [nM]	Ki ([6]; read-out: Ki 5-HT2B) [nM]	inhibition at 1 µM ([5]; ligand concentration 1 μM) [%]	inhibition at 1 µM ([7]; ligand concentration 1 μM) [%]	nH α1D [3]	α-Adrenoceptor α1D, % inhibition ([3]; 3 μM ligand)	nH D1 [4]	IC50 [7] [nM]	Ki [7] [nM]	nH 5-HT2C [7]
Cc1ccc2c(c1)[C@@H]1CN(C)CCC[C@@H]1N2CCc1ccc(C)nc1.Cl.Cl.Cl (relative stereo) [1.6.1(2)•3HCl]	−11	66	87	55	8													
Cc1ccc2c(c1)c1c(n2CCc2ccccn2)CCN(C)C1.Cl.Cl [1.1.2(2-3)•2HCl]						282	139	0.913	1020	647	100							
Cc1ccc2c(c1)[C@H]1CN(C)CCC[C@@H]1N2CCc1cccnc1 [1.6.2(10)•3HCl]	5	69	86	88								99						
CN1CCc2c(c3ccccc3n2Cc2ccccc2)C1 [1.9(1)•½NDSA, bis-(5-benzyl-2-methyl-2,3,4,5-tetrahydro-1H-pyrido[4,3-b]indole) naphtalene-1,5-disulfonate]				77		1330	656	0.552					1.05	70(3 μM) %	1.38	13.5	7.08	0.987
